Results from ChEMBL document CHEMBL4049459, “1,4,5-Trisubstituted Imidazole-Based p53-MDM2/MDMX Antagonists with Aliphatic Linkers for Conjugation with Biological Carriers” (J Med Chem, 2017).
Active and inactive are the calls of the source. The calls are words filed in the database; no cut-off is given here.

Tests used:
U2OS [1] = assay: Cell cycle arrest in wild type p53 expressing human U2OS cells assessed as decrease in accumulation at S phase at 5 uM after 24 hrs by propidium iodide-based FACS analysis; type: functional
U2OS [2] = assay: Cell cycle arrest in wild type p53 expressing human U2OS cells assessed as increase in accumulation at G1 phase at 5 uM after 24 hrs by propidium iodide-based FACS analysis; type: functional
U2OS [3] = assay: Cell cycle arrest in wild type p53 expressing human U2OS cells assessed as decrease in accumulation at S phase at 10 uM after 24 hrs by propidium iodide-based FACS analysis; type: functional
U2OS [4] = assay: Cell cycle arrest in wild type p53 expressing human U2OS cells assessed as increase in accumulation at G1 phase at 10 uM after 24 hrs by propidium iodide-based FACS analysis; type: functional
U2OS [5] = assay: cells; settings: Homo sapiens, 24 h
Description: Cytotoxicity against wild type p53 expressing human U2OS cells assessed as cell growth inhibition after 24 hrs by MTT assay

SAOS-2 = assay: cells; settings: Homo sapiens, SAOS-2, 24 h
Description: Cytotoxicity against p53 deficient human Saos2 cells assessed as cell growth inhibition after 24 hrs by MTT assay

[6] = target: E3 ubiquitin-protein ligase Mdm2 (Homo sapiens) (UniProt Q00987); assay: Inhibition of p53-MDM2 interaction in human U2OS cells assessed as p53 activation by measuring increase in MDM2 expression at 1 uM after 7 hrs by Western blot analysis; type: cell-based
E3 ubiquitin-protein ligase Mdm2 (Homo sapiens), sequence (Q00987 whole entry, looked up): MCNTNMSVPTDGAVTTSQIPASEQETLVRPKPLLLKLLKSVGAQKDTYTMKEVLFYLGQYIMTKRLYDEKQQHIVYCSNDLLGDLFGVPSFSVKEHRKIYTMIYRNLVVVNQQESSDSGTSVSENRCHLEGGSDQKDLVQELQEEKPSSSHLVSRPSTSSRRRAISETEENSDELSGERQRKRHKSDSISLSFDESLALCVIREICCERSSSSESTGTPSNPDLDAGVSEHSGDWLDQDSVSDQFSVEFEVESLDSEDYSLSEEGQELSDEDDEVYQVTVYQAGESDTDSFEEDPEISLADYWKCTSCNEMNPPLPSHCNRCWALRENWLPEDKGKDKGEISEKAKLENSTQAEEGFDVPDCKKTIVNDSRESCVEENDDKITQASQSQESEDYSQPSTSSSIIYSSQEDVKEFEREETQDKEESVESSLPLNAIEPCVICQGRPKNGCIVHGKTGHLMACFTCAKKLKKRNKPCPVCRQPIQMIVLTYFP

[7] = target: E3 ubiquitin-protein ligase Mdm2 (Homo sapiens) (UniProt Q00987); assay: Inhibition of p53-MDM2 interaction in human U2OS cells assessed as p53 activation by measuring increase in p21 expression at 1 uM after 24 hrs by Western blot analysis; type: cell-based
U2OS [8] = assay: Cell cycle arrest in wild type p53 expressing human U2OS cells assessed as decrease in accumulation at S phase at 1 uM after 24 hrs by propidium iodide-based FACS analysis; type: functional
U2OS [9] = assay: Cell cycle arrest in wild type p53 expressing human U2OS cells assessed as increase in accumulation at G1 phase at 1 uM after 24 hrs by propidium iodide-based FACS analysis; type: functional
[10] = target: E3 ubiquitin-protein ligase Mdm2 (Homo sapiens) (UniProt Q00987); assay: Inhibition of p53-MDM2 interaction in human U2OS cells assessed as p53 activation by measuring p21 accumulation at 1 uM after 7 hrs by Western blot analysis; type: cell-based
[11] = target: E3 ubiquitin-protein ligase Mdm2 (Homo sapiens) (UniProt Q00987); assay: Inhibition of p53-MDM2 interaction in human HCT116 cells assessed as p53 activation by measuring increase in MDM2 expression at 1 uM after 7 hrs by Western blot analysis; type: cell-based
[12] = target: E3 ubiquitin-protein ligase Mdm2 (Homo sapiens) (UniProt Q00987); assay: Inhibition of p53-MDM2 interaction in human HCT116 cells assessed as p53 activation by measuring increase in p21 expression at 1 uM after 24 hrs by Western blot analysis; type: cell-based
[13] = target: E3 ubiquitin-protein ligase Mdm2 (Homo sapiens) (UniProt Q00987); assay: Inhibition of p53-MDM2 interaction in human U2OS cells assessed as p53 accumulation at 1 uM after 7 hrs by Western blot analysis; type: cell-based
[14] = Selectivity ratio of IC50 for human Saos2 cells to IC50 for human U2OS cells

| IC50 (U2OS [5]) | IC50 (SAOS-2) | Compound | Activity (U2OS [1]) | Activity (U2OS [2]) | Activity (U2OS [3]) | Activity (U2OS [4]) | further results |
| --- | --- | --- | --- | --- | --- | --- | --- |
| 3.67 µM | 7.15 µM | O=C(NCCN1CCOCC1)c1[nH]c2cc(Cl)ccc2c1-c1c(-c2ccc(F)cc2)ncn1Cc1ccc(Cl)cc1 | Active | Active | Active | Active | – |
| – | – | COc1cc(C(=O)O)ccc1NC(=O)[C@@H]1N[C@@H](CC(C)(C)C)[C@](C#N)(c2ccc(Cl)cc2F)[C@H]1c1cccc(Cl)c1F | – | – | – | – | inhibition [6]: Active; inhibition [7]: Active; Activity (U2OS [8]): Active; Activity (U2OS [9]): Active; inhibition [10]: Active; inhibition [11]: Active; inhibition [12]: Active; inhibition [13]: Active |
| – | – | O=C(O)CCC(=O)NCCCCCCOC(=O)c1[nH]c2cc(Cl)ccc2c1-c1c(-c2ccc(F)cc2)ncn1Cc1ccc(Cl)cc1 | Active | Active | – | – | – |
| 17.4 µM | 55.8 µM | O=C(O)c1[nH]c2cc(Cl)ccc2c1-c1c(-c2ccc(F)cc2)ncn1Cc1ccc(Cl)cc1 | – | – | Active | Active | – |
| 2.66 µM | 20.2 µM | COc1ccc(C2=N[C@H](c3ccc(Cl)cc3)[C@H](c3ccc(Cl)cc3)N2C(=O)N2CCNC(=O)C2)c(OC(C)C)c1 | – | – | – | – | Ratio IC50 [14]: 7.59 |
| 7.27 µM | 11.7 µM | O=C(OCCN1CCOCC1)c1[nH]c2cc(Cl)ccc2c1-c1c(-c2ccc(F)cc2)ncn1Cc1ccc(Cl)cc1 | Active | Active | – | – | – |
| – | – | O=C(O)CCC(=O)OCCCCCCOC(=O)c1[nH]c2cc(Cl)ccc2c1-c1c(-c2ccc(F)cc2)ncn1Cc1ccc(Cl)cc1 | – | – | Active | Active | – |
